“Also recorded” adds a separate entry of the source. Read-outs that look alike come from different tables or passages of the source. Non-standard residues stand in square brackets, D forms with d. Residues, ends and D or L forms follow the SMILES beside them. *: point of attachment. Myristoyl = CCCCCCCCCCCCCC(=O)*
Assays:
ClbPFL = test: In vitro kinetics assay with ClbPFL (o-phthaldialdehyde derivatization); type: biochemical, E. coli
Method: In vitro kinetics assays with ClbPFL (comparison of substrates 2, 3, and 4 using o-phthaldialdehyde derivatization): Assays were run in triplicate in 1.5 mL deep-well plates. ClbPFL-CHis10 was defrosted from −80° C. stocks on ice, then buffer exchanged into phosphate assay buffer using Zeba Spin 40K MWCO desalting columns (ThermoFisher Scientific). The enzyme was then diluted to 0.6 μM in phosphate assay buffer and 50 μL of this stock was deposited in the appropriate wells. The substrate of interest was prepared in a 2-fold dilution series in phosphate assay buffer. Reactions were initiated by the addition of 250 μL of substrate stock to each assay well to a final concentration of 0.1 μM ClbP, 12.5-200 μM substrate, 3% DMSO and incubated at 25° C. Reaction mixtures were pipetted briefly to mix. […] 50 μL of each supernatant from the quenched reactions and standard curves were then transferred to the appropriate wells, pipetted once to mix, and then fluorescence was immediately measured on a plate reader (Bio-Tek Synergy HTX multimode plate reader, measurement settings −360/40 nm excitation filter, 440/20 nm emission filter, detector gain: 35). Fluorescence was measured every 30 seconds for 10 minutes and the maximum value achieved for each well was used for calculations. […]

ClbPFL-S95A = test: In vitro cleavage of synthetic substrates by inactive mutant, LC-MS detection; type: biochemical, E. coli
Method: (§1) The top graph of FIG. 2A depicts LC-MS detection of the prodrug scaffold ([M+H]^+: 343.2597 m/z) released by the hydrolysis of (1) by ClbP in vitro. Reactions were carried out in 50 mM Tris pH 8.0, 200 mM NaCl, 0.1 μM enzyme. 0.02% w/v DDM was added for all reactions involving full-length ClbP (Error bars are SD, n=3). The bottom graph of FIG. 2B depicts kinetic analysis of ClbP acting on synthetic precolibactin-mimic substrate (1). Note that this substrate is insoluble above 200 μM under assay conditions. Rates were calculated by quenching reactions in 1-minute intervals in methanol and quantifying the amount of substrate cleaved by derivatization of the L-alanine product with o-phthaldialdehye (OPA) and fluorescence detection (see Examples) (Error bars are SD, n=3). Substrate is insoluble above 200 μM under assay conditions. All kinetics experiments are averages of 3 independent replicates, reactions were carried out in 50 mM Sodium Phosphate pH 8.0, 200 mM NaCl, 0.02% w/v DDM, 0.1 μM enzyme. The bottom graph of FIG. 2B depicts the approach and substrates sampled in this SAR study. All kinetics experiments are averages of 3 independent replicates, reactions were carried out in 50 mM Sodium Phosphate pH 8.0, 200 mM NaCl, 0.02% w/v DDM, 0.1 μM ClbP-FL (full length) (also referred to herein as ClbPFL). All errors are ±SD.
(§2) Optical densities of E. coli cultures were determined with a DU 730 Life Sciences UV/Vis spectrophotometer (Beckman Coulter, Indianapolis, Ind.) by measuring absorbance at 600 nm. Ultracentrifugation was performed on a Beckman-Coulter Optima XE-90 Ultracentrifuge fitted with a type 45 Ti rotor in 70 mL polycarbonate tubes. Solvents and formic acid used for LC-MS were B & J Brand High Purity Solvents (Honeywell Research Chemicals). High-resolution LC-MS analyses of enzyme assays and synthetic compounds were performed on an Agilent 6530 Q-TOF Mass Spectrometer fitted with a dual-spray electrospray ionization (ESI) source. […] All experiments were performed in positive ion mode, and the masses detected corresponded to [M+H]+ ions unless otherwise noted. […]

ClbPpep = test: In vitro cleavage of synthetic substrates by isolated peptidase domain, LC-MS detection; type: biochemical, E. coli
Method: as §1, §2

[1] = test system: ClbPFL (full-length ClbP); test: In vitro cleavage of synthetic substrates by ClbPFL, LC-MS detection; type: biochemical, E. coli; details: for cleavage by ClbPFL in vitro: LC-MS detection of cleavage product
Method: as §1
Optical densities of E. coli cultures were determined with a DU 730 Life Sciences UV/Vis spectrophotometer (Beckman Coulter, Indianapolis, Ind.) by measuring absorbance at 600 nm. Ultracentrifugation was performed on a Beckman-Coulter Optima XE-90 Ultracentrifuge fitted with a type 45 Ti rotor in 70 mL polycarbonate tubes. Solvents and formic acid used for LC-MS were B & J Brand High Purity Solvents (Honeywell Research Chemicals). High-resolution LC-MS analyses of enzyme assays and synthetic compounds were performed on an Agilent 6530 Q-TOF Mass Spectrometer fitted with a dual-spray electrospray ionization (ESI) source. The capillary voltage was set to 3.5 kV, the fragmentor voltage to 175 V, the skimmer voltage to 65 V, and the Oct 1 RF to 750 V. The drying gas temperature was maintained at 275° C. with a flow rate of 8 L/min and a nebulizer pressure of 35 psi. A standard calibrant mix was introduced continuously during all experiments via the dual-spray ESI source. For analytical liquid chromatography, unless otherwise noted, experiments were performed using an Agilent Technologies 1200 series LC on a Hypersil GOLDaq™ C18 reverse phase column (50×3 mm, Thermo Scientific) with the following elution conditions: a gradient from 35% solvent A:65% solvent B to 100% solvent A over 5 minutes, holding at 100% A for 2 minutes, followed by a gradient back to 35% solvent A over 1 minute and holding at 35% solvent A for 3.5 minutes (solvent A: acetonitrile+0.1% formic acid; solvent B: water+0.1% formic acid; flow rate=0.4 mL/minute; injection volume=10 μL). All experiments were performed in positive ion mode, and the masses detected corresponded to [M+H]+ ions unless otherwise noted. Masses were found within 5 ppm of the expected [M+H]+ masses.
For all in vitro assays involving ClbPFL and ClbFL-S95A “Tris assay buffer” refers to a buffer composed of 50 mM Tris, 200 mM NaCl, 0.02% w/v DDM, pH 8.0. Likewise, “phosphate assay buffer” refers to 50 mM sodium phosphate, 200 mM NaCl, 0.02% w/v DDM, pH 8.0.

[2] = Solubility and membrane permeability as observed in the assays; type: physicochemical; details: under assay conditions
[3] = test system: CCCCCCCCCCCCCC(=O)N[C@H](CC(N)=O)C(=O)N[C@@H](C)C(=O)OC; test: Kinetics of ClbPFL-mediated cleavage of substrates 1 and 2 (FIG. 8); type: biochemical, E. coli; details: pH 8.0
From the text: (§3) FIG. 8 depicts the kinetics of ClbPFL-mediated cleavage of substrates 1 and 2. Each data point is an average of 3 biological replicates with error bars representing 1 SD. Solid lines are non-linear regression fits of data points to the Michaelis-Menten equation.
(§4) As used herein “ClbP” or “colibactin P” refers to a membrane bound periplasmic peptidase that cleaves an N-acyl-D-asparagine motif (the ‘prodrug scaffold’) from the N-terminus of precolibactin to liberate the active colibactin (FIG. 1). The sequences of ClbP are known in the art, e.g., the polypeptide sequence is available in the Uniprot database as accession number Q0P7K6 (SEQ ID NO: 1).
(§5) We obtained purified enzyme by separating the cell components using ultracentrifugation, solubilizing the membranes in an n-dodecyl-β-D-maltoside (DDM)-containing buffer, and per¬forming immobilized metal affinity chromatography. Because the structure of precolibactin has not yet been fully elucidated, we tested purified ClbPFL against a variety of synthetic precolibactin analogues. […] We chose substrate 2 for a more detailed structure—activity relationship (SAR) study. […]

[4] = test system: CCCCCCCCCCCCCC(=O)N[C@H](CC(N)=O)C(=O)N[C@@H](C)CCC(=O)CC(=O)NC1(C(=O)O)CC1; test: as above; type: biochemical, E. coli; details: pH 8.0
From the text: as §3, §4, §5

[5] = test system: CCCCCCCCCCCCCC(=O)N[C@H](CC(N)=O)C(=O)N[C@@H](C)C(=O)OC; test: In vitro kinetics of ClbPFL-mediated cleavage of substrates, o-phthaldialdehyde (OPA) derivatization of L-alanine product with fluorescence detection (FIGS. 2B, 10, 11); type: biochemical, E. coli; details: pH 8.0
Method: as §1
(§6) FIGS. 10A-10C depict the kinetics of ClbPFL-mediated cleavage of substrates (FIG. 10A) 2, (FIG. 10B) 3, and (FIG. 10C) 4. Each data point is an average of 3 biological replicates with error bars representing 1 SD. Solid lines are non-linear regression fits of data points to the Michaelis-Menten model.
(§7) FIG. 11 depicts the kinetic parameters for substrates 2, 3, and 4. […]
(§8) To determine the key features for substrate recognition by full-length ClbP, we undertook a structure-activity-relationship (SAR) focusing on three key regions of the substrate. […] Using a higher-throughput fluorescence derivatization assay, we determined kinetic parameters for several of these substrates (FIG. 2B). […]

[6] = test system: COC(=O)[C@H](C)NC(=O)[C@@H](CC(N)=O)NC(=O)CCCc1ccccc1; test: as above; type: biochemical, E. coli; details: pH 8.0
Method: as §1, §6, §7, §8

[7] = test system: CCCC(=O)N[C@H](CC(N)=O)C(=O)N[C@@H](C)C(=O)OC; test: as above; type: biochemical, E. coli; details: pH 8.0
Method: as §1, §6, §7, §8

Compound	kinetic parameters / hydrolysis efficiency compared with the reference substrate (ClbPFL)	cleavage by ClbPFL-S95A in vitro (ClbPFL-S95A)	cleavage by ClbPpep in vitro (ClbPpep)	cleavage by ClbPFL in vitro [1]	further results
CCCCCCCCCCCCCC(=O)N[C@H](CC(N)=O)C(=O)N[C@@H](C)CCC(=O)CC(=O)NC1(C(=O)O)CC1 [(1)]	comparable	no cleavage activity	no cleavage activity	rapidly in vitro	cleavage by ClbPFL-S95A in vitro (ClbPFL-S95A; listed as 2): no activity; cleavage by ClbPpep in vitro (ClbPpep; listed as 2): no activity; also recorded: cannot process; solubility limit [2]: ≤ 200 µM
CCCCCCCCCCCCCC(=O)N[C@H](CC(=O)O)C(=O)N[C@@H](C)C(=O)OC [(6)] (Myristoyl-[dD]-Ala-OMe)				cleaved in low amounts	amount cleaved by ClbPFL, fold less than (1) ([1]; LC-MS, relative to (1)): ~100 fold
CCCCCCCCCCCCCC(=O)N[C@@H](CC(N)=O)C(=O)N[C@@H](C)C(=O)OC [(7)] (Myristoyl-Asn-Ala-OMe)				no cleavage products were detected	
CCCCCCCCCCCCCC(=O)N[C@H](CCC(N)=O)C(=O)N[C@@H](C)C(=O)OC [(8)] (Myristoyl-[dQ]-Ala-OMe)				no cleavage products were detected	
CCCCCCCCCCCCCC(=O)N[C@H](CC(N)=O)C(=O)N[C@@H](C)CCC(=O)CC(=O)NC1(C(=O)O)CC1 [Compound 1]	comparable	no activity	no activity	rapidly in vitro	
ClbPFL (full-length ClbP, ClbPFL-CHis10) (Escherichia coli)					Km [3]: 75 ± 23 µM; Km [4]: 16 ± 2 µM; Km [5]: 130 ± 26 µM; Km [6]: 246 ± 70 µM; Km [7]: 680 ± 470 µM

Reference: patent publication US11040951B2, “Methods and compositions relating to genotoxin colibactin” (PRESIDENT AND FELLOWS OF HARVARD COLLEGE, priority 2018, dated 2021)
